Results: patent publication US11117926B2, “Cholane derivatives for use in the treatment and/or prevention of FXR and TGR5/GPBAR1 mediated diseases” (BAR PHARMACEUTICALS S.R.L., priority 2014, dated 2021)

Legend:
human GPBAR1 = target: T1, human GPBAR1 (Homo sapiens, UniProt Q8TDU6); test: GPBAR1 mediated transactivation (CRE luciferase reporter) in transfected HEK-293T cells; format: cell-based; conditions: each compound at 10 microM, transactivation activity of TLCA on CRE = 100%
T1 construct: expressed in transfected cells; host or cells: HEK-293T
T1 sequence (Q8TDU6 1-330): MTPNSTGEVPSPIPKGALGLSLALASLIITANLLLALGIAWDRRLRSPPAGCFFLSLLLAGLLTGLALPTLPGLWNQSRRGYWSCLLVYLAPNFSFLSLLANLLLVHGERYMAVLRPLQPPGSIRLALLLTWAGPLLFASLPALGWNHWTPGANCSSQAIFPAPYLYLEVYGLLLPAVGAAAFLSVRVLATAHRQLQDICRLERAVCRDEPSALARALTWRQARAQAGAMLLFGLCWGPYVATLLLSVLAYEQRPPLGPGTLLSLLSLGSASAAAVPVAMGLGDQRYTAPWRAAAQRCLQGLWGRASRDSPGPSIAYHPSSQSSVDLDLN
Procedure: (§1) Each compound was tested at the concentration of 10 microM and transactivation activity of CDCA on FXR and TLCA on CRE (i.e. TGR5/GPBAR1) was considered equal to 100%.
(§2) Biological Activities. Activity of selected compounds was tested in vitro using a whole cell model transfected with a reporter genes to establish selectivity of compounds shown in table 1 toward FXR and TGR5/GPBAR1 in comparison with chenodeoxycholic acid (CDCA) and TLCA. CDCA is a primary bile acid that functions as an endogenous ligand for FXR, while TLCA is a physiological ligand for TGR5/GPBAR1. In this assay, HepG2 cells (a liver-derived cell line) were cultured at 37° C. in minimum essential medium with Earl's salts containing 10% fetal bovine serum (FBS), 1% L-glutamine, and 1% penicillin/streptomycin. […] The transfection experiments were performed using Fugene HD according to manufactured specifications. Cells were plated in a 24-well plate at 5×10^4 cells/well. For FXR mediated transactivation, HepG2 cells were transfected with 100 ng of pSG5-FXR, 100 ng of pSG5-RXR, 100 ng of pGL4.70 a vector encoding the human Renilla gene and 250 ng of the reporter vector p(hsp27)-TK-LUC containing the FXR response element IR1 cloned from the promoter of heat shock protein 27 (hsp27).
(§3) At 24 h post-transfection, cells were stimulated for 18 h with 10 μM TLCA as a control agent or putative GPBAR1 agonists as the same concentration. After treatments, cells were lysed in 100 μL of lysis buffer (25 mM Tris-phosphate, pH 7.8; 2 mM DTT; 10% glycerol; 1% Triton X-100), and 20 μL of cellular lysate was assayed for luciferase activity using the luciferase assay system. Luminescence was measured using Glomax 20/20 luminometer. Luciferase activities were normalized against Renilla activities. Antagonism against FXR of GPBAR1/TGR5 was measured as percent of activity in transactivation assay suing activity of TLCA as example of agonism.

FXR = target: T2, FXR (Homo sapiens, UniProt Q96RI1); test: FXR mediated transactivation (luciferase reporter) in transfected HepG2 cells; format: cell-based; conditions: each compound at 10 microM, transactivation activity of CDCA on FXR = 100%
T2 construct: expressed in transfected cells; host or cells: HepG2
T2 sequence (Q96RI1 1-486): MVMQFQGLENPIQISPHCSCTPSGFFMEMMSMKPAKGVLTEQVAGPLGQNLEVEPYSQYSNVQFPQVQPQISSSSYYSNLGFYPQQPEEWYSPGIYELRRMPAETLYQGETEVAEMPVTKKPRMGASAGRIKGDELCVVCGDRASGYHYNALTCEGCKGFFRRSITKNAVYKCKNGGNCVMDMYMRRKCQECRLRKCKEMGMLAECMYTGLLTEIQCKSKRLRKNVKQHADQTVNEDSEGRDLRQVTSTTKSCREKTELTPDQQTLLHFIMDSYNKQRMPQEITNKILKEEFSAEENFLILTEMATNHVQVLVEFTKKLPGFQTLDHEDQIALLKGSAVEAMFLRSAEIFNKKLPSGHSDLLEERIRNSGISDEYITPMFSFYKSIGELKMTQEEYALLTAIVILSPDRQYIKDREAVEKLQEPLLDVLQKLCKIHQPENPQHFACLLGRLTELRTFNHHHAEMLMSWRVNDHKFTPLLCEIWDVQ
T2 sequence (P19793 1-462 partner): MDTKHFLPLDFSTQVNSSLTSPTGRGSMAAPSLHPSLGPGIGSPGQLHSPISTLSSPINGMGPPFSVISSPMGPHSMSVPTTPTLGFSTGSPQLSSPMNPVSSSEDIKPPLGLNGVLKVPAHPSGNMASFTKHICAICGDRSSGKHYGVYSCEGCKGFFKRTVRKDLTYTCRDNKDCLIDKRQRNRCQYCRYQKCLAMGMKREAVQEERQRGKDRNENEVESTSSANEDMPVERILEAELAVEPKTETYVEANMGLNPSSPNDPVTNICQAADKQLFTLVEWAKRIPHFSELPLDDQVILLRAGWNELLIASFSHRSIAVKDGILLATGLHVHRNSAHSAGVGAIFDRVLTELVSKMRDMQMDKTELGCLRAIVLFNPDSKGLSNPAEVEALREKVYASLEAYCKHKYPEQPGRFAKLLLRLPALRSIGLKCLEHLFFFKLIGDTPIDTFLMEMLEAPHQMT
Procedure: as §1, §2, §3

[1] = test system: sea lamprey (Petromyzon marinus); conditions: cited from earlier work
[2] = patients suffering from primary biliary cirrhosis (PBC), clinical trials; cited from earlier work
[3] = target: T3, intestinal bile acid carrier (Homo sapiens, UniProt Q12908); conditions: CaCo-2 cells; cited from earlier work
T3 construct: host or cells: CaCo-2
T3 sequence (Q12908 1-348): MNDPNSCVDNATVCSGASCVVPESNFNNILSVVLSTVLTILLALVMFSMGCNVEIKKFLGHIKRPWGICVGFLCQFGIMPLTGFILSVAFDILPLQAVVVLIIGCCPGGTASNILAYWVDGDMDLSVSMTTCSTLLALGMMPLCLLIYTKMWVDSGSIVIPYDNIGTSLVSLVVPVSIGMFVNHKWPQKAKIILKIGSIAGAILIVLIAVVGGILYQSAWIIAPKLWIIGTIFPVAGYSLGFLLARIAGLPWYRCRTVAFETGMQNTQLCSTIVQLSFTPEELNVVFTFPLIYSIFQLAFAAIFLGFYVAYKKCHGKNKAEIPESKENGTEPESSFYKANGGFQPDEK

[4] = not given; remark: listed apart in the source
[5] = ANIT or 17α-ethynylestradiol cholestasis models

Row | Compound | GPBAR1 (% of activity in comparison to 10 μM TLCA) (human GPBAR1) | FXR (% of activity in comparison to 10 μM CDCA) (FXR) | other results
1 | C[C@H](CCCOS(=O)(=O)O)[C@H]1CCC2C3CC[C@@H]4CCCC[C@]4(C)C3CC[C@@]21C (stereo partly shown) [BAR407] | 37.3 ± 2.5% | 177.1 ± 3.5% | olfactory response [1]: did not to elicit an olfactory response
2 | CC[C@H]1[C@@H](O)C2C3CC[C@H]([C@H](C)CC#N)[C@@]3(C)CCC2[C@@]2(C)CC[C@@H](O)C[C@@H]12 (stereo partly drawn) [BAR506, 6α-ethyl-3α,7α-dihydroxy-24-nor-5β-cholan-23-nitrile] | 80.9 ± 9.5% | 411.5 ± 36.5% | –
3 | CC[C@H]1[C@@H](O)C2C3CC[C@H]([C@H](C)CC(=O)O)[C@@]3(C)CCC2[C@@]2(C)CC[C@H](O)C[C@@H]12 (stereo partly drawn) [BARn710, 6α-ethyl-3β,7α-dihydroxy-24-nor-5β-cholan-23-oic acid] | 75 ± 8.0% | 142 ± 1.0% | –
4 | CC[C@H]1[C@@H](O)C2C3CC[C@H]([C@H](C)CCCCCO)[C@@]3(C)CCC2[C@@]2(C)CC[C@@H](O)C[C@@H]12 (stereo partly drawn) [BAR803, 6α-ethyl-3α, 7α-dihydroxy-25, 26-bishomo-5β-cholan-26-ol] | 80.5 ± 5.0% | 122.5 ± 5.5% | –
5 | C[C@H](CCCCC(=O)O)[C@H]1CCC2C3C(CC[C@@]21C)[C@@]1(C)CC[C@@H](O)C[C@H]1C[C@@H]3O (stereo partly drawn) [BAR305, 3α, 7β-dihydroxy-25, 26-bishomo-5β-cholan-26-oic acid] | 23.9 ± 4.0% | 0% | –
6 | CC[C@@H]1[C@H](O)[C@@H]2[C@H](CC[C@]3(C)[C@@H]([C@H](C)CCCO)CC[C@@H]23)[C@@]2(C)CC[C@@H](O)C[C@@H]12 [BAR501, 6β-ethyl-3α,7β-dihydroxy-5β-cholan-24-ol] | 64.5 ± 0.5% | 9.9 ± 0.1% | –
7 | CC[C@H]1[C@@H](O)[C@@H]2[C@H](CC[C@]3(C)[C@@H]([C@H](C)CCC(=O)O)CC[C@@H]23)[C@@]2(C)CC[C@@H](O)C[C@@H]12 [obeticholic acid] | – | – | patients with severe itching [2]: approximately 80%
8 | CC[C@H]1[C@@H](O)[C@@H]2[C@H](CC[C@]3(C)[C@@H]([C@H](C)CCCOS(=O)(=O)[O-])CC[C@@H]23)[C@@]2(C)CCCC[C@@H]12.[Na+] [BAR701solf, 6α-ethyl-7α-hydroxy-5β-cholan-24-yl 24-sodium sulfate] | 63.5 ± 0.5% | 229 ± 2.0% | –
9 | C[C@H](CC(=O)O)[C@H]1CCC2C3CC[C@@H]4CCCC[C@]4(C)C3CC[C@@]21C (stereo partly shown) [BARn406] | 4.8 ± 1.8% | 27.0 ± 1.5% | ability to inhibit taurocholic acid transport [3]: undetectable
10 | CC[C@H]1[C@H](O)[C@@H]2[C@H](CC[C@]3(C)[C@@H]([C@H](C)CCCO)CC[C@@H]23)[C@@]2(C)CCCC[C@@H]12 [BAR703, 6α-ethyl-7β-hydroxy-5β-cholan-24-ol] | 47.7 ± 1.0% | 8.6 ± 0.8% | –
11 | CC[C@H]1[C@@H](O)C2C3CC[C@H]([C@H](C)CCO)[C@@]3(C)CCC2[C@@]2(C)CC[C@@H](O)C[C@@H]12 (stereo partly drawn) [BAR502, 6α-ethyl-3α, 7α-dihydroxy-24-nor-5β-cholan-23-ol] | 74.5 ± 6.4% | 263.0 ± 32.0% | bile acid pool (17α-ethynylestradiol model): reshapes bile acid pool; cholestasis (17α-ethynylestradiol model): attenuates cholestasis; itching (mouse, in vivo): without inducing itching; liver expression of canonical FXR target genes including OSTα, BSEP, SHP and MDR1 [4, 5]: robustly modulates; serum alkaline phosphatase levels [4, 5]: attenuates; survival [4, 5]: increases survival; itching (pruritus) ([4]; mouse, in vivo): does not induce itching
12 | CC[C@H]1[C@@H](O)C2C3CC[C@H]([C@H](C)CCO)[C@@]3(C)CCC2[C@@]2(C)CCCC[C@@H]12 (stereo partly drawn) [BARn701, 6α-ethyl-7α-hydroxy-24-nor-5β-cholan-23-ol] | 55 ± 1.0% | 90 ± 22% | –
13 | CC=C1[C@H](O)[C@@H]2[C@H](CC[C@]3(C)[C@@H]([C@H](C)CCCO)CC[C@@H]23)[C@@]2(C)CC[C@@H](O)C[C@@H]12 [BAR503, 6-ethylidene-3α,7β-dihydroxy-5β-cholan-24-ol] | 59.8 ± 0.1% | 68.8 ± 26.6% | –
